The values that follow are results of earlier work, collected in patent US8993607B2, “Therapeutic compounds” (Rutgers, The State University of New Jersey, priority 2007, dated 2015).

In data set [1] the test system is human breast cancer cell lines HBC-4, BSY-1, HBC-5, MCF-7, and MDA-MB-231. To be noted: range over HBC-4, BSY-1, HBC-5, MCF-7, MDA-MB-231; Sohda et al., 2005.
The next data set concerns SK-N-AS. To be noted: human neuroblastoma cell line SK-N-AS; Binz et al., 2005; read-out: cytotoxicity IC50.
Data set [2] deals with natural bone marrow CD34-positive cells. To be noted: compared, Tauchi et al., 2003.
The target in another data set is telomerase. Particulars: read-out: telomerase inhibitory activity IC50.
The test system of the next data set is LANS. To be noted: human neuroblastoma cell line LANS; Binz et al., 2005; read-out: cytotoxicity IC50.
The subject of the next data set is WAC2. To be noted: human neuroblastoma cell line WAC2; Binz et al., 2005; read-out: cytotoxicity IC50.
For the next data set, the system named is LAN1. To be noted: human neuroblastoma cell line LAN1; Binz et al., 2005; read-out: cytotoxicity IC50.
A further data set relates to K62 leukemia cells. Particulars: Tauchi et al., 2003.
In a further data set the test system is MiaPaCa. To be noted: human pancreatic carcinoma MiaPaCa; Liu et al., 2005; read-out: cytotoxicity IC50.

Molecules are shown by their SMILES.

As a reminder, the GI50 is the concentration that inhibits growth by half. For the molecule `CC[C@H](C)[C@@H]1NC(=O)c2nc(oc2-c2ccccc2)-c2csc(n2)-c2coc(n2)-c2coc(n2)-c2coc(n2)CNC(=O)[C@@H](C(C)C)NC1=O` [YM-216391], the GI50 in data set [1] is 15 to 33 nM.

A word on the IC50: it is the concentration that inhibits the measured activity by half. Turning to `Cc1oc2nc1-c1nc(co1)-c1nc(co1)-c1nc(co1)-c1nc(co1)-c1nc(co1)C1=NC(CS1)c1nc-2c(C)o1` (stereo not drawn) [telomestatin], the IC50 with SK-N-AS was 800 nM; at telomerase, 5 nM; in the data set on LANS, 2500 nM; in the data set with WAC2 it was 3200 nM; in the data set on LAN1, 4000 nM; with MiaPaCa, 500 nM. Besides, the “effect on burst-forming units—erythrocyte (BFU-E) and colony-forming units—granulocyte/macrophage (CFU-GM)” value in [2] is listed as “much lesser effect”. Further, in the data set on K62 leukemia cells, the plating efficiency result is “suppress the plating efficiency”.
